Results from patent US8530489B2 (Vertex Pharmaceuticals Incorporated, priority 2006, dated 2013).

These compounds were tested against PLK1 (Homo sapiens, UniProt P53350) (assay: PLK1 Inhibition Assay I (radioactive-phosphate incorporation)). Conditions: Ki(app); PLK1 Inhibition Assay I or II (table does not say which).
Assay type: biochemical
Procedure, shortened: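 Ki(app) values came from non-linear regression of initial rates after background subtraction, with phosphopeptide measured by phosphocellulose filter binding and scintillation counting. PLK1 at 2 nM was preincubated with compound (typically from 10 μM, 2-fold dilutions) for 10 min, then run 240 min at 25° C with 350 μM [γ-33P]ATP and 450 μM peptide substrate in HEPES pH 7.5 buffer.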

Chain of PLK1 (P53350 whole entry): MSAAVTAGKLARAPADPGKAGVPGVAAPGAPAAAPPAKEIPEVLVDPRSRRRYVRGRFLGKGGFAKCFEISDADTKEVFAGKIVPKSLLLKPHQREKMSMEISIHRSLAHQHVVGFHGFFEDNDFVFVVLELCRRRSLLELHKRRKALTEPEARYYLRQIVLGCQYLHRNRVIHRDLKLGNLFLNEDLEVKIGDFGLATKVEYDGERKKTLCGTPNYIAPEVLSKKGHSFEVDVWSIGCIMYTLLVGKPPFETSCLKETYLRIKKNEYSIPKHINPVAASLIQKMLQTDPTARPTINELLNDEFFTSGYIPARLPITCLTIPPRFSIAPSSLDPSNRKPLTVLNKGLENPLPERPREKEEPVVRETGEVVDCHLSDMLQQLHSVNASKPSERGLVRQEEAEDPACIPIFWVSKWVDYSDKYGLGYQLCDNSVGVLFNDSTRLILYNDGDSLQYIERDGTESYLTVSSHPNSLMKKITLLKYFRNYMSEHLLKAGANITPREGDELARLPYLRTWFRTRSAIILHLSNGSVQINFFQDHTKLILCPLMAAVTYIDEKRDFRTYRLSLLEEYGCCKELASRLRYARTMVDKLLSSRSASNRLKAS

| Ki [nM] | Compound |
| --- | --- |
| < 3 | CCN1CCN(c2ccc([C@@H](C)Nc3ncc(C#N)c(-c4c[nH]c5ncc(C(F)(F)F)cc45)n3)cn2)CC1 [Compound I-285, 2-((R)-1-(6-(4-ethylpiperazin-1-yl)pyridin-3-yl)ethylamino)-4-(5-(trifluoromethyl)-1H-pyrrolo[2,3-b]pyridin-3-yl)pyrimidine-5-carbonitrile] |
| > 40 | N#Cc1cnc(Sc2ccccc2Cl)nc1-c1c[nH]c2ncc(C(F)(F)F)cc12 [II-5, 2-(2-chlorophenylthio)-4-(5-(trifluoromethyl)-1H-pyrrolo[2,3-b]pyridin-3-yl)pyrimidine-5-carbonitrile] |
| 3 to 40 | CC[C@@H](C)[C@@H](CO)Nc1ncc(C#N)c(-c2c[nH]c3ncc(C(F)(F)F)cc23)n1 [Compound I-116, 2-((2S,3R)-1-hydroxy-3-methylpentan-2-ylamino)-4-(5-(trifluoromethyl)-1H-pyrrolo[2,3-b]pyridin-3-yl)pyrimidine-5-carbonitrile] |
| < 3 | CNC(=O)c1ccc([C@@H](C)Nc2ncc(C#N)c(-c3c[nH]c4ncc(C(F)(F)F)cc34)n2)cc1 [Compound I-163, 4-((1R)-1-(5-cyano-4-(5-(trifluoromethyl)-1H-pyrrolo[2,3-b]pyridin-3-yl)pyrimidin-2-ylamino)ethyl)-N-methylbenzamide] |
| < 3 | CC(=O)N1CCC(C(C)Nc2ncc(C#N)c(-c3c[nH]c4ncc(C(F)(F)F)cc34)n2)CC1 (stereo not shown) [Compound I-101, 2-(1-(1-acetylpiperidin-4-yl)ethylamino)-4-(5-(trifluoromethyl)-1H-pyrrolo[2,3-b]pyridin-3-yl)pyrimidine-5-carbonitrile] |
| 3 to 40 | C[C@H](CN1CCOCC1)Nc1ncc(C#N)c(-c2c[nH]c3ncc(C(F)(F)F)cc23)n1 [Compound I-132, 2-((R)-1-morpholinopropan-2-ylamino)-4-(5-(trifluoromethyl)-1H-pyrrolo[2,3-b]pyridin-3-yl)pyrimidine-5-carbonitrile] |
| > 40 | C[C@H](Nc1ncc(C#N)c(-c2c[nH]c3ncc(Cl)cc23)n1)C(=O)NCC(F)(F)F [IA-6, (2S)-2-(4-(5-chloro-1H-pyrrolo{2,3-b]pyridin-3-yl)-5-cyanopyrimidin-2-ylamino)-N-(2,2,2-trifluoroethyl)propanamide] |
| 3 to 40 | CC[C@H](C)Nc1ncc(C#N)c(-c2c[nH]c3ncc(C(F)(F)F)cc23)n1 [Compound I-77, 2-(sec-butylamino)-4-(5-(trifluoromethyl)-1H-pyrrolo[2,3-b]pyridin-3-yl)pyrimidine-5-carbonitrile] |
| < 3 | CC(C)[C@@H](N)CC(=O)N1CCC([C@@H](C)Nc2ncc(C#N)c(-c3c[nH]c4ncc(C(F)(F)F)cc34)n2)CC1 [Compound I-247, 2-((R)-1-(1-((S)-3-amino-4-methylpentanoyl)piperidin-4-yl)ethylamino)-4-(5-(trifluoromethyl)-1H-pyrrolo[2,3-b]pyridin-3-yl)pyrimidine-5-carbonitrile] |
| < 3 | C[C@@H](Nc1ncc(C#N)c(-c2c[nH]c3ncc(C(F)(F)F)cc23)n1)[C@H]1CC[C@@H](NS(C)(=O)=O)CC1 (single isomer, unassigned) [Compound I-203] |
| > 40 | CNC(=O)C(C)(C)Nc1ncc(C#N)c(-c2c[nH]c3ncc(Cl)cc23)n1 [IA-8, 2-(4-(5-chloro-1H-pyrrolo[2,3-b]pyridin-3-yl)-5-cyanopyrimidin-2-ylamino)-N,2-dimethylpropanamide] |
| < 3 | C[C@@H](Nc1ncc(C#N)c(-c2c[nH]c3ncc(C(F)(F)F)cc23)n1)c1cnc(N2CCN(C)CC2)nc1 [Compound I-299, 2-((R)-1-(2-(4-methylpiperazin-1-yl)pyrimidin-5-yl)ethylamino)-4-(5-(trifluoromethyl)-1H-pyrrolo[2,3-b]pyridin-3-yl)pyrimidine-5-carbonitrile] |
| 3 to 40 | N#Cc1cnc(NCCO)nc1-c1c[nH]c2ncc(C(F)(F)F)cc12 [Compound I-109, 2-(2-hydroxyethylamino)-4-(5-(trifluoromethyl)-1H-pyrrolo[2,3-b]pyridin-3-yl)pyrimidine-5-carbonitrile] |
| > 40 | CCOc1cccc(Sc2ncc(C#N)c(-c3c[nH]c4ncc(C(F)(F)F)cc34)n2)c1 [II-9, 2-(3-ethoxyphenylthio)-4-(5-(trifluoromethyl)-1H-pyrrolo[2,3-b]pyridin-3-yl)pyrimidine-5-carbonitrile] |
| 3 to 40 | N#Cc1cnc(NC[C@H]2CC[C@@H](O)C2)nc1-c1c[nH]c2ncc(C(F)(F)F)cc12 [Compound I-81, 2-(((1S,3R)-3-hydroxycyclopentyl)methylamino)-4-(5-(trifluoromethyl)-1H-pyrrolo[2,3-b]pyridin-3-yl)pyrimidine-5-carbonitrile] |
| < 3 | COc1ccc(C(C)Nc2ncc(C#N)c(-c3c[nH]c4ncc(C(F)(F)F)cc34)n2)cn1 (stereo not shown) [Compound I-52, 2-(1-(6-methoxypyridin-3-yl)ethylamino)-4-(5-(trifluoromethyl)-1H-pyrrolo[2,3-b]pyridin-3-yl)pyrimidine-5-carbonitrile] |

| Ki [nM] | Compound |
| --- | --- |
| 3 to 40 | C[C@@H](Nc1ncc(C#N)c(-c2c[nH]c3ncc(C(F)(F)F)cc23)n1)c1ccc2ccccc2c1 [Compound I-31, 2-((R)-1-(naphthalen-2-yl)ethylamino)-4-(5-(trifluoromethyl)-1H-pyrrolo[2,3-b]pyridin-3-yl)pyrimidine-5-carbonitrile] |
| > 40 | CN1CCC(CNc2ncc(C#N)c(-c3c[nH]c4ncc(C(F)(F)F)cc34)n2)CC1 [Compound I-117, 2-((1-methylpiperidin-4-yl)methylamino)-4-(5-(trifluoromethyl)-1H-pyrrolo[2,3-b]pyridin-3-yl)pyrimidine-5-carbonitrile] |
| < 3 | COC(=O)N1CCC(C(C)Nc2ncc(C#N)c(-c3c[nH]c4ncc(C(F)(F)F)cc34)n2)CC1 (stereo not shown) [Compound I-152, methyl 4-(1-(5-cyano-4-(5-(trifluoromethyl)-1H-pyrrolo[2,3-b]pyridin-3-yl)pyrimidin-2-ylamino)ethyl)piperidine-1-carboxylate] |
| < 3 | C[C@@H](Nc1ncc(C#N)c(-c2c[nH]c3ncc(C(F)(F)F)cc23)n1)[C@H]1CC[C@H](N2CCN(C)CC2)CC1 [Compound I-261, 2-((R)-1-((1r,4R)-4-(4-methylpiperazin-1-yl)cyclohexyl)ethylamino)-4-(5-(trifluoromethyl)-1H-pyrrolo[2,3-b]pyridin-3-yl)pyrimidine-5-carbonitrile] |
| < 3 | C[C@@H](Nc1ncc(C#N)c(-c2c[nH]c3ncc(C(F)(F)F)cc23)n1)C1CCN(C(=O)[C@@H]2CCCN2)CC1 [Compound I-236, 2-((R)-1-(1-((S)-pyrrolidine-2-carbonyl)piperidin-4-yl)ethylamino)-4-(5-(trifluoromethyl)-1H-pyrrolo[2,3-b]pyridin-3-yl)pyrimidine-5-carbonitrile] |
| 3 to 40 | N#Cc1cnc(N[C@H]2CCOC2)nc1-c1c[nH]c2ncc(C(F)(F)F)cc12 [Compound I-78, 2-((S)-tetrahydrofuran-3-ylamino)-4-(5-(trifluoromethyl)-1H-pyrrolo[2,3-b]pyridin-3-yl)pyrimidine-5-carbonitrile] |
| 3 to 40 | CC(C)(Nc1ncc(C#N)c(-c2c[nH]c3ncc(C(F)(F)F)cc23)n1)c1ccccc1 [Compound I-9, 2-(2-phenylpropan-2-ylamino)-4-(5-(trifluoromethyl)-1H-pyrrolo[2,3-b]pyridin-3-yl)pyrimidine-5-carbonitrile] |
| < 3 | C[C@@H](Nc1ncc(C#N)c(-c2c[nH]c3ncc(C(F)(F)F)cc23)n1)C1CCN(C(=O)C(O)CO)CC1 (stereo partly drawn) [Compound I-257, 2-((1R)-1-(1-(2,3-dihydroxypropanoyl)piperidin-4-yl)ethylamino)-4-(5-(trifluoromethyl)-1H-pyrrolo[2,3-b]pyridin-3-yl)pyrimidine-5-carbonitrile] |
| < 3 | CCC(=O)Nc1ccc([C@@H](C)Nc2ncc(C#N)c(-c3c[nH]c4ncc(C(F)(F)F)cc34)n2)cc1 [Compound I-144, N-(4-((1R)-1-(5-cyano-4-(5-(trifluoromethyl)-1H-pyrrolo[2,3-b]pyridin-3-yl)pyrimidin-2-ylamino)ethyl)phenyl)propionamide] |
| 3 to 40 | N#Cc1cnc(NC2CCOCC2)nc1-c1c[nH]c2ncc(C(F)(F)F)cc12 [Compound I-74, 2-(tetrahydro-2H-pyran-4-ylamino)-4-(5-(trifluoromethyl)-1H-pyrrolo[2,3-b]pyridin-3-yl)pyrimidine-5-carbonitrile] |
| < 3 | C[C@@H](Nc1ncc(C#N)c(-c2c[nH]c3ncc(C(F)(F)F)cc23)n1)C1CCN(C(=O)CN)CC1 [Compound I-210, 2-((R)-1-(1-(2-aminoacetyl)piperidin-4-yl)ethylamino)-4-(5-(trifluoromethyl)-1H-pyrrolo[2,3-b]pyridin-3-yl)pyrimidine-5-carbonitrile] |
| 3 to 40 | COCC(Nc1ncc(C#N)c(-c2c[nH]c3ncc(C(F)(F)F)cc23)n1)C(C)C (stereo not shown) [Compound I-110, 2-(1-methoxy-3-methylbutan-2-ylamino)-4-(5-(trifluoromethyl)-1H-pyrrolo[2,3-b]pyridin-3-yl)pyrimidine-5-carbonitrile] |
| > 40 | CCCC(C)Sc1ncc(C#N)c(-c2c[nH]c3ncc(C(F)(F)F)cc23)n1 (stereo not shown) [II-16, 2-(pentan-2-ylthio)-4-(5-(trifluoromethyl)-1H-pyrrolo[2,3-b]pyridin-3-yl)pyrimidine-5-carbonitrile] |
| < 3 | C[C@@H](Nc1ncc(C#N)c(-c2c[nH]c3ncc(C(F)(F)F)cc23)n1)c1ccc(N(C)C2CCN(C)C2)nc1 (stereo partly drawn) [Compound I-295, 2-((1R)-1-(6-(methyl(1-methylpyrrolidin-3-yl)amino)pyridin-3-yl)ethylamino)-4-(5-(trifluoromethyl)-1H-pyrrolo[2,3-b]pyridin-3-yl)pyrimidine-5-carbonitrile] |
| > 40 | CC(C)(Nc1ncc(C#N)c(-c2c[nH]c3ncc(C(F)(F)F)cc23)n1)C(=O)O [IA-9, 2-(5-cyano-4-(5-(trifluoromethyl)-1H-pyrrolo[2,3-b]pyridin-3-yl)pyrimidin-2-ylamino)-2-methylpropanoic acid] |
